From US20130109682A1, “CYCLIC ETHER COMPOUNDS USEFUL AS KINASE INHIBITORS” (NOVARTIS AG, priority 2010, published 2013)

Legend:
Type in all cases: biochemical
[1] = biological target: PIM1 (Homo sapiens, UniProt P11309); assay: KinaseGlo Pim1 ATP depletion assay
Protocol: KinaseGlo Pim1 ATP Depletion Assay
The activity of PIM1 is measured using a luciferase-luciferin based ATP detection reagent to quantify ATP depletion resulting from kinase-catalyzed phosphoryl transfer to a peptide substrate. Compounds to be tested are dissolved in 100% DMSO and directly distributed into white 384-well plates at 0.5 μA per well. To start the reaction, 10 μA of 5 nM Pim1 kinase and 80 μM BAD peptide (RSRHSSYPAGT-OH) in assay buffer (50 mM HEPES pH 7.5, 5 mM MgCl2, 1 mM DTT, 0.05% BSA) is added into each well. After 15 minutes, 10 μl of 40 μM ATP in assay buffer is added. Final assay concentrations are 2.5 nM PIM1, 20 μM ATP, 40 μM BAD peptide and 2.5% DMSO. The reaction is performed until approximately 50% of the ATP is depleted, then stopped with the addition of 20 μA KinaseGlo Plus (Promega Corporation) solution. The stopped reaction is incubated for 10 minutes and the remaining ATP detected via luminescence on the Victor2 (Perkin Elmer). […] IC50, the half maximal inhibitory concentration, represents the concentration of a test compound that is required for 50% inhibition of its target in vitro.

[2] = biological target: PIM2 (Homo sapiens, UniProt Q9P1W9); assay: KinaseGlo Pim2 ATP depletion assay
PIM2, sequence (Q9P1W9 whole entry): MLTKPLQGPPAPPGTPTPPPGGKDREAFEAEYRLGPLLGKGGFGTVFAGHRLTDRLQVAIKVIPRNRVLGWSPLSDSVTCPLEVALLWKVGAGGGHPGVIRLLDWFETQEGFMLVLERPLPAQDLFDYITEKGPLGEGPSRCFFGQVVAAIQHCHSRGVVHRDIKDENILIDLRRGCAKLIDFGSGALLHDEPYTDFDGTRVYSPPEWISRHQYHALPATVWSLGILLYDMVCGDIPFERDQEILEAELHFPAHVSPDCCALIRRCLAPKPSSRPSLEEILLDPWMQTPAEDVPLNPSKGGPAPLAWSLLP
Protocol: KinaseGlo Pim2 ATP Depletion Assay
The activity of PIM2 is measured using a luciferase-luciferin based ATP detection reagent to quantify ATP depletion resulting from kinase-catalyzed phosphoryl transfer to a peptide substrate. Compounds to be tested are dissolved in 100% DMSO and directly distributed into white 384-well plates at 0.5 piper well. To start the reaction, 10 μl of 10 nM Pim2 kinase and 20 μM BAD peptide (RSRHSSYPAGT-OH) in assay buffer (50 mM HEPES pH 7.5, 5 mM MgCl2, 1 mM DTT, 0.05% BSA) is added into each well. After 15 minutes, 10 μl of 8 μM ATP in assay buffer is added. Final assay concentrations are 5 nM PIM2, 4 μM ATP, 10 μM BAD peptide and 2.5% DMSO. The reaction is performed until approximately 50% of the ATP is depleted, then stopped with the addition of 20 μl KinaseGlo Plus (Promega Corporation) solution. The stopped reaction is incubated for 10 minutes and the remaining ATP detected via luminescence on the Victor2 (Perkin Elmer).

[3] = biological target: PIM3 (Homo sapiens, UniProt Q86V86); assay: KinaseGlo Pim3 ATP depletion assay
Protocol: KinaseGlo Pim3 ATP Depletion Assay
The activity of PIM3 is measured using a luciferase-luciferin based ATP detection reagent to quantify ATP depletion resulting from kinase-catalyzed phosphoryl transfer to a peptide substrate. Compounds to be tested are dissolved in 100% DMSO and directly distributed into white 384-well plates at 0.5 μl per well. To start the reaction, 10 μl of 10 nM Pim3 kinase and 200 μM BAD peptide (RSRHSSYPAGT-OH) in assay buffer (50 mM HEPES pH 7.5, 5 mM MgCl2, 1 mM DTT, 0.05% BSA) is added into each well. After 15 minutes, 10 μl of 80 μM ATP in assay buffer is added. Final assay concentrations are 5 nM […], 40 μM ATP, 100 μM BAD peptide and 2.5% DMSO. The reaction is performed until approximately 50% of the ATP is depleted, then stopped by the addition of 20 μl KinaseGlo Plus (Promega Corporation) solution. The stopped reaction is incubated for 10 minutes and the remaining ATP detected via luminescence on the Victor2 (Perkin Elmer).

[4] = biological target: GSK3β (Homo sapiens, UniProt P49841); assay: GSK3β ATP depletion assay; details: read-out: GSK3b IC50
GSK3β, sequence (P49841 whole entry, species assumed): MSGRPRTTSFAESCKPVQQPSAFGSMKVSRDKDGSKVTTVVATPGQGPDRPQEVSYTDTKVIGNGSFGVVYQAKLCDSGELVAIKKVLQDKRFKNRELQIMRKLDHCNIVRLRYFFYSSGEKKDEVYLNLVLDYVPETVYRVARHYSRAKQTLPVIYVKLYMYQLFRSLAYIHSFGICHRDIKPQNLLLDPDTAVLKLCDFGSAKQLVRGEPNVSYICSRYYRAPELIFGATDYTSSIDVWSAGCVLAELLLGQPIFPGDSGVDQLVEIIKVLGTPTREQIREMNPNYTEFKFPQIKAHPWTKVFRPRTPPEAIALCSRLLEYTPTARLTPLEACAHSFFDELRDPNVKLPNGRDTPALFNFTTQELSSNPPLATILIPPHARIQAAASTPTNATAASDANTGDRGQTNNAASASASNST
Protocol: GSK3β ATP Depletion Assay
The activity of GSK3β is measured using a luciferase-luciferin based ATP detection reagent to quantify ATP depletion resulting from kinase-catalyzed phosphoryl transfer to a peptide substrate. Compounds to be tested are dissolved in 100% DMSO and directly distributed into white 384-well plates at 0.5 μl per well. To start the reaction, 10 μl of 10 nM GSK3B kinase and 20 μM biotinylated CREB peptide ([…](pS)YR-NH2) in assay buffer (50 mM TRIS pH 7.5, 15 mM MgCl2, 1 mM DTT, 0.1% BSA) is added into each well. After 15 minutes, 10 μl of 2 μM ATP in assay buffer is added. Final assay concentrations are 5 nM GSK3B, […], 10 μM b-CREB peptide and 2.5% DMSO. The reaction is performed until approximately 50% of the ATP is depleted, then stopped with the addition of 20 μl KinaseGlo (Promega Corporation) solution. The stopped reaction is incubated for 10 minutes and the remaining ATP is detected via luminescence on the Victor2 (Perkin Elmer).

PIM1, sequence (P11309 whole entry): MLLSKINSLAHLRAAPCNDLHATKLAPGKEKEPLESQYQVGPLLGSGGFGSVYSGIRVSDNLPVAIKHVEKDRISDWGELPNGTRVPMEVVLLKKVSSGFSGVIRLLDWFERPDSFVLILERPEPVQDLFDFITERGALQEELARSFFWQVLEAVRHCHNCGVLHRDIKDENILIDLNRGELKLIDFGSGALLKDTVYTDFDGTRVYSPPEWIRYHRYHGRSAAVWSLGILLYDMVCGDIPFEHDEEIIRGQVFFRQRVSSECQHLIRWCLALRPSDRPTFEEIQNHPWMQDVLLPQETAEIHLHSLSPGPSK

`C[C@@H]1O[C@H](c2ccncc2NC(=O)c2ccc(F)c(-c3c(F)cccc3F)n2)C[C@H](O)[C@]1(O)CO` [Example 19, 6-(2,6-difluorophenyl)-N-(4-((2S,4S,5R,6S)-4,5-dihydroxy-5-(hydroxymethyl)-6-methyltetrahydro-2H-pyran-2-yl)pyridin-3-yl)-5-fluoropicolinamide] was tested. Which IC50 [1] did it give?
The IC50 was 1 nM.

And the IC50 [2]?
The IC50 was 10 nM.

What about the IC50 [3] of the same compound?
The IC50 was 4 nM.

And the IC50 [4]?
The IC50 was 703 nM.

How did the IC50 [1] turn out when `N#C[C@H]1OC(c2ccncc2NC(=O)c2ccc(F)c(-c3c(F)cccc3F)n2)=C[C@@H](O)[C@@H]1O` [Example 21, N-(4-((2R,3S,4R)-2-cyano-3,4-dihydroxy-3,4-dihydro-2H-pyran-6-yl)pyridin-3-yl)-6-(2,6-difluorophenyl)-5-fluoropicolinamide] was run?
The IC50 was 1 nM.

And the IC50 [2]?
The IC50 was 9 nM.

What about the IC50 [3] of the same compound?
The IC50 was 3 nM.

And the IC50 [4]?
The IC50 was 1140 nM.

With `Nc1cnc(-c2c(F)cccc2F)nc1C(=O)Nc1cnccc1[C@H]1C[C@@H](O)[C@@]2(O)CCCC[C@H]2O1` [Example 172, 5-amino-2-(2,6-difluorophenyl)-N-(4-((2R,4R,4aS,8aR)-4,4a-dihydroxyoctahydro-2H-chromen-2-yl)pyridin-3-yl)pyrimidine-4-carboxamide] as the compound, how does the IC50 [1] read?
The IC50 was 2.2 nM.

What about the IC50 [2] of the same compound?
Its IC50 is 3.1 nM.

What about the IC50 [3] of the same compound?
Its IC50 is 3.1 nM.

And the IC50 [4]?
The IC50 was 21 nM.

Which results are given for `O=C(Nc1cnccc1[C@]1(C(F)(F)F)CCCCO1)c1ccc(F)c(-c2c(F)cccc2F)n1` [Example 52, (S)-6-(2,6-difluorophenyl)-5-fluoro-N-(4-(2-(trifluoromethyl)tetrahydro-2H-pyran-2-yl)pyridin-3-yl)picolinamide]?
IC50 [1]: 29 nM; IC50 [2]: 4220 nM; IC50 [3]: 124 nM; IC50 [4]: 695 nM

With `O=C(Nc1cnccc1[C@]1(C(F)(F)F)C[C@H](O)CCO1)c1ccc(F)c(-c2c(F)cccc2F)n1` [Example 50, 6-(2,6-difluorophenyl)-5-fluoro-N-(4-((2S,4R)-4-hydroxy-2-(trifluoromethyl)tetrahydro-2H-pyran-2-yl)pyridin-3-yl)picolinamide] as the compound, how does the IC50 [1] read?
The IC50 was 28 nM.

What about the IC50 [2] of the same compound?
Its IC50 is 2130 nM.

What about the IC50 [3] of the same compound?
Its IC50 is 110 nM.

What about the IC50 [4] of the same compound?
The IC50 was 196 nM.

`O=C(Nc1cnccc1[C@]1(C(F)(F)F)C[C@H](O)C=CO1)c1ccc(F)c(-c2c(F)cccc2F)n1` [Example 49, 6-(2,6-difluorophenyl)-5-fluoro-N-(4-((2S,4S)-4-hydroxy-2-(trifluoromethyl)-3,4-dihydro-2H-pyran-2-yl)pyridin-3-yl)picolinamide] was tested. Which IC50 [1] did it give?
The IC50 was 27 nM.

And the IC50 [2]?
Its IC50 is 1420 nM.

And the IC50 [3]?
Its IC50 is 73 nM.

And the IC50 [4]?
The IC50 was 210 nM.

For `NC(=O)C[C@H]1O[C@@H](c2ccncc2NC(=O)c2ccc(F)c(-c3c(F)cccc3F)n2)C[C@@H](O)[C@@H]1O` [Example 159, N-(4-((2R,4R,5S,6R)-6-(2-amino-2-oxoethyl)-4,5-dihydroxytetrahydro-2H-pyran-2-yl)pyridin-3-yl)-6-(2,6-difluorophenyl)-5-fluoropicolinamide], which IC50 [2] is on record?
The IC50 was 6640 nM.

And the IC50 [3]?
Its IC50 is 890 nM.

Which results are given for `CC[C@H]1O[C@@H](c2ccncc2NC(=O)c2c[nH]cc(-c3ccccc3)c2=O)C[C@@H](O)[C@@H]1O` [Example 170, N-(4-((2R,4R,5S,6R)-6-ethyl-4,5-dihydroxytetrahydro-2H-pyran-2-yl)pyridin-3-yl)-4-oxo-5-phenyl-1,4-dihydropyridine-3-carboxamide]?
IC50 [1]: 1450 nM; IC50 [2]: 11800 nM; IC50 [3]: 1320 nM; IC50 [4]: 3580 nM

For `O=C(Nc1cnccc1[C@@H]1C[C@H](O)[C@]2(O)CCCC[C@@H]2O1)c1c[nH]cc(-c2ccccc2)c1=O` [Example 171, N-(4-((2S,4S,4aR,8aS)-4,4a-dihydroxyoctahydro-2H-chromen-2-yl)pyridin-3-yl)-4-oxo-5-phenyl-1,4-dihydropyridine-3-carboxamide], which IC50 [1] is on record?
Its IC50 is 8370 nM.

What about the IC50 [2] of the same compound?
The IC50 was over 25000 nM.

And the IC50 [3]?
Its IC50 is 10800 nM.

And the IC50 [4]?
Its IC50 is over 25000 nM.

What does the source list for `C[C@H]1O[C@@H](c2ccncc2NC(=O)c2ccc(F)c(-c3c(F)cccc3F)n2)C[C@@H](O)[C@@]1(O)CO` [Example 20, 6-(2,6-difluorophenyl)-N-(4-((2R,4R,5S,6R)-4,5-dihydroxy-5-(hydroxymethyl)-6-methyltetrahydro-2H-pyran-2-yl)pyridin-3-yl)-5-fluoropicolinamide]?
IC50 [1]: 8 nM; IC50 [2]: 103 nM; IC50 [3]: 32 nM; IC50 [4]: 2560 nM

What does the source list for `O=C(Nc1cnccc1[C@@]1(C(F)(F)F)C[C@@H](O)CCO1)c1ccc(F)c(-c2c(F)cccc2F)n1` [Example 53, 6-(2,6-difluorophenyl)-5-fluoro-N-(4-((2R,4S)-4-hydroxy-2-(trifluoromethyl)tetrahydro-2H-pyran-2-yl)pyridin-3-yl)picolinamide]?
IC50 [1]: 78 nM; IC50 [2]: 10300 nM; IC50 [3]: 847 nM; IC50 [4]: 3120 nM

Which results are given for `N#CC[C@H]1O[C@@H](c2ccncc2NC(=O)c2ccc(C#N)c(-c3c(F)cccc3F)n2)CC[C@@H]1O` [Example 45, 5-cyano-N-(4-((2R,5S,6R)-6-(cyanomethyl)-5-hydroxytetrahydro-2H-pyran-2-yl)pyridin-3-yl)-6-(2,6-difluorophenyl)picolinamide]?
IC50 [1]: 68 nM; IC50 [2]: 1270 nM; IC50 [3]: 338 nM; IC50 [4]: 4310 nM

Which IC50 [1] does the source give for `O=C(Nc1cnccc1[C@H]1C[C@@H](O)[C@H](O)[C@@H](CF)O1)c1ccc(F)c(-c2c(F)cccc2F)n1` [Example 282, 6-(2,6-difluorophenyl)-5-fluoro-N-(4-((2R,4R,5S,6S)-6-(fluoromethyl)-4,5-dihydroxytetrahydro-2H-pyran-2-yl)pyridin-3-yl)picolinamide] here?
The IC50 was 1 nM.

And the IC50 [2]?
The IC50 was 10 nM.

And the IC50 [3]?
The IC50 was 4 nM.

And the IC50 [4]?
The IC50 was 187 nM.

What does the source list for `O=C(Nc1cnccc1[C@@]1(C(F)(F)F)C[C@@H](O)C=CO1)c1ccc(F)c(-c2c(F)cccc2F)n1` [Example 48, 6-(2,6-difluorophenyl)-5-fluoro-N-(4-((2R,4R)-4-hydroxy-2-(trifluoromethyl)-3,4-dihydro-2H-pyran-2-yl)pyridin-3-yl)picolinamide]?
IC50 [1]: 72 nM; IC50 [2]: 19600 nM; IC50 [3]: 1770 nM; IC50 [4]: 3620 nM

With `O=C(Nc1cnccc1[C@@]1(C(F)(F)F)CCCCO1)c1ccc(F)c(-c2c(F)cccc2F)n1` [Example 51, (R)-6-(2,6-difluorophenyl)-5-fluoro-N-(4-(2-(trifluoromethyl)tetrahydro-2H-pyran-2-yl)pyridin-3-yl)picolinamide] as the compound, how does the IC50 [1] read?
The IC50 was 54 nM.

And the IC50 [2]?
Its IC50 is 7360 nM.

And the IC50 [3]?
Its IC50 is 617 nM.

And the IC50 [4]?
Its IC50 is 3720 nM.
